# Test results taken from patent publication US20220146526A1, “METHOD FOR EVALUATING SAMPLE, ANALYSIS METHOD, METHOD FOR DETECTING DEGRADED SAMPLE, MARKER FOR DETECTING DEGRADED BLOOD PLASMA SAMPLE, AND MARKER FOR DETECTING DEGRADED SERUM SAMPLE” (SHIMADZU CORPORATION, priority 2019, published 2022).
# Experiment: LC/MS of blood plasma sample: time from blood collection to centrifugation (Table D)
# Assay type: physicochemical, human
# Conditions: detection intensity relative to 1 at 15 minutes, blood collection to centrifugation, after 4 hours
# In short: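 Healthy-subject blood (5 mL, EDTA) cooled and held at 4 °C before centrifugation (4 °C, 3000 rpm, 15 min), with plasma then frozen. LC/MS on Discovery HS F5-3 column at 40 °C, 0.1% formic acid water/acetonitrile, 0.25 mL/min, electrospray, MRM; intensities relative to 15 min collection-to-centrifugation set as 1.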
row,Compound,Rate of increase or decrease
1,Nc1ccn([C@@H]2O[C@H](CO)[C@@H](O)[C@H]2O)c(=O)n1 [Cytidine],1.95
2,OC[C@H]1O[C@@H](n2cnc3c(O)ncnc32)[C@H](O)[C@@H]1O [Inosine],2.26
3,Nc1ncnc2c1ncn2[C@@H]1O[C@H](CSCC[C@H](N)C(=O)O)[C@@H](O)[C@H]1O [S-adenosylhomocysteine],0.66

# Same assay, conditions: detection intensity, blood collection to centrifugation, after 4 hours vs 15 minutes
row,Compound,Increase or decrease
1,Nc1ccn([C@@H]2O[C@H](CO)[C@@H](O)[C@H]2O)c(=O)n1 [Cytidine],Increase
2,OC[C@H]1O[C@@H](n2cnc3c(O)ncnc32)[C@H](O)[C@@H]1O [Inosine],Increase
3,Nc1ncnc2c1ncn2[C@@H]1O[C@H](CSCC[C@H](N)C(=O)O)[C@@H](O)[C@H]1O [S-adenosylhomocysteine],Decrease

# Experiment: LC/MS of blood plasma sample: time from blood collection to cooling of blood (Table E)
# Assay type: physicochemical, human
# Design: key to Rate of increase or decrease / Rate of increase or decrease (first value, increase): detection intensity relative to ≤1 min to cooling = 1
# Conditions: detection intensity, blood collection to cooling 5 minutes or more vs 1 minute or less
row,Compound,Increase or decrease
1,Nc1ccn([C@@H]2O[C@H](CO)[C@@H](O)[C@H]2O)c(=O)n1 [Cytidine],Different from individual
2,OC[C@H]1O[C@@H](n2cnc3c(O)ncnc32)[C@H](O)[C@@H]1O [Inosine],Different from individual
3,Nc1ncnc2c1ncn2[C@@H]1O[C@H](CSCC[C@H](N)C(=O)O)[C@@H](O)[C@H]1O [S-adenosylhomocysteine],Different from individual

# Same assay, conditions: different from individual to individual, individuals with decrease, relative to 1 at 1 minute or less, collection to cooling 5 minutes
row,Compound,"Rate of increase or decrease (second value, decrease)"
1,Nc1ccn([C@@H]2O[C@H](CO)[C@@H](O)[C@H]2O)c(=O)n1 [Cytidine],0.46
2,OC[C@H]1O[C@@H](n2cnc3c(O)ncnc32)[C@H](O)[C@@H]1O [Inosine],0.64
3,Nc1ncnc2c1ncn2[C@@H]1O[C@H](CSCC[C@H](N)C(=O)O)[C@@H](O)[C@H]1O [S-adenosylhomocysteine],0.49

# Same assay, conditions: different from individual to individual, individuals with increase, relative to 1 at 1 minute or less, collection to cooling 5 minutes
row,Compound,"Rate of increase or decrease (first value, increase)"
1,Nc1ccn([C@@H]2O[C@H](CO)[C@@H](O)[C@H]2O)c(=O)n1 [Cytidine],2.56
2,OC[C@H]1O[C@@H](n2cnc3c(O)ncnc32)[C@H](O)[C@@H]1O [Inosine],18.25
3,Nc1ncnc2c1ncn2[C@@H]1O[C@H](CSCC[C@H](N)C(=O)O)[C@@H](O)[C@H]1O [S-adenosylhomocysteine],1.40

# Experiment: LC/MS of blood plasma sample: number of times of freezing and thawing (Table F)
# Assay type: physicochemical, human
# Conditions: detection intensity relative to 1 at 2 times, freezing and thawing 4 times
# In short: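 Human blood from a healthy subject drawn into EDTA tubes, cooled to 4° C within 1 min or after ≥5 min, centrifuged at 4° C, 3000 rpm, 15 min. Plasma frozen, then freeze-thawed 2, 4, 6 or 10 times and analysed by LC/MS (ESI, MRM). Intensities expressed relative to 2 freeze-thaw cycles set as 1.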
row,Compound,Rate of increase or decrease
1,Nc1ncnc2c1ncn2[C@@H]1O[C@H](CSCC[C@H](N)C(=O)O)[C@@H](O)[C@H]1O [S-adenosylhomocysteine],2.09

# Same assay, conditions: detection intensity, freezing and thawing 4 times vs 2 times
row,Compound,Increase or decrease
1,Nc1ncnc2c1ncn2[C@@H]1O[C@H](CSCC[C@H](N)C(=O)O)[C@@H](O)[C@H]1O [S-adenosylhomocysteine],Increase

# Same assay, conditions: detection intensity, freezing and thawing 6 times vs 2 times
row,Compound,Increase or decrease
1,Nc1ccn([C@@H]2O[C@H](CO)[C@@H](O)[C@H]2O)c(=O)n1 [Cytidine],Different from individual
2,OC[C@H]1O[C@@H](n2cnc3c(O)ncnc32)[C@H](O)[C@@H]1O [Inosine],Different from individual

# Same assay, conditions: different from individual to individual, individuals with decrease, relative to 1 at 2 times, freezing and thawing 6 times
row,Compound,"Rate of increase or decrease (second value, decrease)"
1,Nc1ccn([C@@H]2O[C@H](CO)[C@@H](O)[C@H]2O)c(=O)n1 [Cytidine],0.30
2,OC[C@H]1O[C@@H](n2cnc3c(O)ncnc32)[C@H](O)[C@@H]1O [Inosine],0.53

# Same assay, conditions: different from individual to individual, individuals with increase, relative to 1 at 2 times, freezing and thawing 6 times
row,Compound,"Rate of increase or decrease (first value, increase)"
1,Nc1ccn([C@@H]2O[C@H](CO)[C@@H](O)[C@H]2O)c(=O)n1 [Cytidine],1.54
2,OC[C@H]1O[C@@H](n2cnc3c(O)ncnc32)[C@H](O)[C@@H]1O [Inosine],1.67

# Experiment: LC/MS of serum sample: time from blood collection to centrifugation (Table J)
# Assay type: physicochemical, human
# Conditions: after 4 hours from blood collection to centrifugation; detection intensity relative to 1 at 15 minutes
# In short: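 Serum from blood centrifuged at room temperature, 3500 rpm, 5 min, then frozen; analysed by LC/MS on a Discovery HS F5-3 column at 40 °C. Mobile phase: 0.1% formic acid in water/acetonitrile, 0.25 mL/min, electrospray MRM. Values are intensity relative to a 15 min collection-to-centrifugation time.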
row,Compound,Rate of increase or decrease
1,Nc1ccn([C@@H]2O[C@H](CO)[C@@H](O)[C@H]2O)c(=O)n1 [Cytidine],0.62
2,OC[C@H]1O[C@@H](n2cnc3c(O)ncnc32)[C@H](O)[C@@H]1O [Inosine],0.17
3,Nc1ncnc2c1ncn2[C@@H]1O[C@H](CSCC[C@H](N)C(=O)O)[C@@H](O)[C@H]1O [S-adenosylhomocysteine],2.82

# Same assay, conditions: serum sample, LC/MS; detection intensity vs 15 minutes from blood collection to centrifugation
row,Compound,Increase or decrease
1,Nc1ccn([C@@H]2O[C@H](CO)[C@@H](O)[C@H]2O)c(=O)n1 [Cytidine],Decrease
2,OC[C@H]1O[C@@H](n2cnc3c(O)ncnc32)[C@H](O)[C@@H]1O [Inosine],Decrease
3,Nc1ncnc2c1ncn2[C@@H]1O[C@H](CSCC[C@H](N)C(=O)O)[C@@H](O)[C@H]1O [S-adenosylhomocysteine],Increase

# Same assay, conditions: serum sample, LC/MS; time from blood collection to centrifugation; detection intensity changed by 30% or more vs 15 minutes
row,Compound,Time when compound is affected
1,Nc1ccn([C@@H]2O[C@H](CO)[C@@H](O)[C@H]2O)c(=O)n1 [Cytidine],After 4 hours
2,OC[C@H]1O[C@@H](n2cnc3c(O)ncnc32)[C@H](O)[C@@H]1O [Inosine],After 4 hours
3,Nc1ncnc2c1ncn2[C@@H]1O[C@H](CSCC[C@H](N)C(=O)O)[C@@H](O)[C@H]1O [S-adenosylhomocysteine],After 4 hours

# Experiment: LC/MS of serum sample: time from centrifugation to isolation (Table K)
# Assay type: physicochemical, human
# Design: key to Rate of increase or decrease: detection intensity relative to the 30-minute value set as 1
# Conditions: after 1 hour from centrifugation to isolation; detection intensity relative to 1 at 30 minutes
# In short: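 Serum left at room temperature 30 min, 1 h or 6 h between centrifugation (3500 rpm, 5 min, room temperature) and isolation, then frozen and analysed by LC/MS (Discovery HS F5-3 column, 40° C., 0.1% formic acid water/acetonitrile, electrospray, MRM). Values are detection intensity relative to the 30-min condition set to 1.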
row,Compound,Rate of increase or decrease
1,Nc1ccn([C@@H]2O[C@H](CO)[C@@H](O)[C@H]2O)c(=O)n1 [Cytidine],0.70
2,OC[C@H]1O[C@@H](n2cnc3c(O)ncnc32)[C@H](O)[C@@H]1O [Inosine],0.61
3,Nc1ncnc2c1ncn2[C@@H]1O[C@H](CSCC[C@H](N)C(=O)O)[C@@H](O)[C@H]1O [S-adenosylhomocysteine],1.51

# Same assay, conditions: serum sample, LC/MS; detection intensity vs 30 minutes from centrifugation to isolation
row,Compound,Increase or decrease
1,Nc1ccn([C@@H]2O[C@H](CO)[C@@H](O)[C@H]2O)c(=O)n1 [Cytidine],Decrease
2,OC[C@H]1O[C@@H](n2cnc3c(O)ncnc32)[C@H](O)[C@@H]1O [Inosine],Decrease
3,Nc1ncnc2c1ncn2[C@@H]1O[C@H](CSCC[C@H](N)C(=O)O)[C@@H](O)[C@H]1O [S-adenosylhomocysteine],Increase

# Same assay, conditions: serum sample, LC/MS; time from centrifugation to isolation; detection intensity changed by 30% or more vs 30 minutes
row,Compound,Time when compound is affected
1,Nc1ccn([C@@H]2O[C@H](CO)[C@@H](O)[C@H]2O)c(=O)n1 [Cytidine],After 1 hour hours
2,OC[C@H]1O[C@@H](n2cnc3c(O)ncnc32)[C@H](O)[C@@H]1O [Inosine],After 1 hour hours
3,Nc1ncnc2c1ncn2[C@@H]1O[C@H](CSCC[C@H](N)C(=O)O)[C@@H](O)[C@H]1O [S-adenosylhomocysteine],After 1 hour hours

# Experiment: LC/MS of serum sample: number of times of freezing and thawing (Table M)
# Assay type: physicochemical, human
# Design: key to Rate of increase or decrease: detection intensity relative to 1 at 2 freeze-thaw cycles
# Conditions: 4 times of freezing and thawing; detection intensity relative to 1 at 2 times
# In short: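 Serum was isolated at room temperature after centrifugation at room temperature, 3500 rpm, 5 minutes, then frozen and freeze-thawed 2, 4, 6 or 10 times. LC/MS used a Discovery HS F5-3 column at 40° C with formic acid water/acetonitrile, electrospray MRM. Intensity is relative to 2 freeze-thaw cycles.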
row,Compound,Rate of increase or decrease
1,Nc1ccn([C@@H]2O[C@H](CO)[C@@H](O)[C@H]2O)c(=O)n1 [Cytidine],1.52
2,OC[C@H]1O[C@@H](n2cnc3c(O)ncnc32)[C@H](O)[C@@H]1O [Inosine],1.44

# Same assay, conditions: 6 times of freezing and thawing; relative to 1 at 2 times; different from individual to individual, first value (increase)
row,Compound,Rate of increase or decrease
1,Nc1ncnc2c1ncn2[C@@H]1O[C@H](CSCC[C@H](N)C(=O)O)[C@@H](O)[C@H]1O [S-adenosylhomocysteine],1.62

# Same assay, conditions: 6 times of freezing and thawing; relative to 1 at 2 times; different from individual to individual, second value (decrease)
row,Compound,Rate of increase or decrease
1,Nc1ncnc2c1ncn2[C@@H]1O[C@H](CSCC[C@H](N)C(=O)O)[C@@H](O)[C@H]1O [S-adenosylhomocysteine],0.49

# Same assay, conditions: serum sample, LC/MS; detection intensity changed by 30% or more vs 2 times of freezing and thawing
row,Compound,Number of times when compound is affected [times]
1,Nc1ccn([C@@H]2O[C@H](CO)[C@@H](O)[C@H]2O)c(=O)n1 [Cytidine],4
2,OC[C@H]1O[C@@H](n2cnc3c(O)ncnc32)[C@H](O)[C@@H]1O [Inosine],4
3,Nc1ncnc2c1ncn2[C@@H]1O[C@H](CSCC[C@H](N)C(=O)O)[C@@H](O)[C@H]1O [S-adenosylhomocysteine],6

# Same assay, conditions: serum sample, LC/MS; detection intensity vs 2 times of freezing and thawing
row,Compound,Increase or decrease
1,Nc1ccn([C@@H]2O[C@H](CO)[C@@H](O)[C@H]2O)c(=O)n1 [Cytidine],Increase
2,OC[C@H]1O[C@@H](n2cnc3c(O)ncnc32)[C@H](O)[C@@H]1O [Inosine],Increase
3,Nc1ncnc2c1ncn2[C@@H]1O[C@H](CSCC[C@H](N)C(=O)O)[C@@H](O)[C@H]1O [S-adenosylhomocysteine],Different from individual
